Results taken from patent US7943660B2, “Inhibitors of the LFA-1/ICAM-1 interaction and uses thereof” (Dominion Pharmakine S.L., priority 2005, dated 2011).

Tests used:
[1] = system: Co26-CC cells; experiment: Hepatic metastasis assay (intrasplenic injection of Co26-CC cells); assay type: in vivo, BALB/c mice; conditions: Co26-CC cells preincubated with 10 μg/ml HC0303 for 30 min before intrasplenic injection; day 14; vs untreated cells; FIG. 9; P<0.01
Experimental: Hepatic metastases were produced by the intrasplenic injection into anesthetized male BALB/c mice (6- to 8-weeks old) of 1.5×10^5 viable Co26-CC cells suspended in 0.1 ml Hanks' balanced salt solution. Some cells were incubated with 10 μg/ml compound HC0303 for 30 min prior to their inoculation. Mice were killed by cervical dislocation on the 14th day after the injection of cancer cells. An integrated image analysis system (Olympus Microimage 4.0 capture kit) connected to an Olympus BX51TF microscope was used to quantify the number of foci and their average diameters in serially-cut and hematoxylin/eosin stained hepatic tissue sections.
Densitometric analysis of digitalized microscopic images was used to distinguish metastatic tissue from normal hepatic tissue. Previously described stereological procedures were employed (cf. Vidal-Vanaclocha et al., Cancer Research, 1994, 54(10):2667-72) and the following parameters were calculated: the liver metastasis density, which was the number of metastases per 100 mm^3 of liver (based on the mean number of foci detected in fifteen 10×10 mm^2 sections per liver) and the liver metastasis volume (mean percentage of liver volume occupied by metastases).
In vitro effect of compound HC0303 on in vivo metastatic behavior of cancer cells was tested in Co26-CC cells. […] In addition, the percentage of liver volume occupied by metastases was assessed. […]

[2] = system: B16 melanoma (B16M) cell adhesion to VEGF-induced HSE cells mediated by LFA-1; experiment: B16M cell adhesion to VEGF-treated hepatic sinusoidal endothelial (HSE) cells in vitro; assay type: cell-based, murine; conditions: HSE pre-incubated with 10 μg/ml HC0303 30 min prior to 10 ng/ml rmVEGF for 8 hours; FIG. 5; P<0.001
Experimental: Time-dependent adhesion assays was carried out on a quantitative basis according to previous validated bioassays (Vidal-Vanaclocha et al., Cancer Research, 1994, 54(10):2667-72). For tumor cell pre-labelling, they were allowed to accumulate the non-fluorescent sterase substrate BCECF-AM and to hydrolyze it to its fluorescent product BCECF which becomes trapped inside living cells. To do this, 50 μg of BCECF-AM were diluted in dry DMSO (5 μl) and DME medium until […] (40 μg/ml).
Tumor cells (5×10^6) were incubated in BCECF-AM solution at 37° C. for 30 min. After gently washing, tumor cells were resuspended in fresh medium (DMEM without phenol red) at a concentration of 2×10^6 cells/ml.
Twenty-four hours post-plating, primary cultured hepatic sinusoidal endothelial (HSE) cells were also used for adhesion assay. To determine the basal autofluorescence per well, plates were read on a fluorometric microplate reader (Multiskan Ascent, Thermo Labsystems) using 485/22 nm excitation and the 530/25 nm emission filter. Then, 2×10^5 labeled tumor cells were added to each well of HSE cells and to collagen pre-coated control wells.
However, in order to determine the exact number of cells in each well, co-culture plates were read for a second time. Then, plates were incubated at 37° C. […]

Which “liver metastasis density (number of foci/100 mm^3)” value [1] does the source give for `CC[C@H](C)C(OCc1ccccc1)[C@@H]1[C@H]([N+](=O)[O-])[C@H](c2ccccc2)N[C@]1(C)C(=O)NCCC(=O)O` (stereo partly drawn) [HC0303, 3-[(2S,3R,4S,5S)-3-[(2S)-1-(Benzyloxy)-2-methylbutyl]-2-methyl-4-nitro-5-phenylpyrrolidine-2-carboxamido]propanoic acid] here?
The value was “almost abrogated”.

And the “liver metastasis volume (percentage of liver volume occupied by metastases)” value [1]?
Its value is “almost abrogated”.

And the melting point?
Its melting point is 104 to 105 °C.

And the “B16M cell adhesion increase produced in response of VEGF” value [2]?
The value was “abrogated”.
